Results on two compounds are retold here after patent US7592350B2, “Polycyclic compounds as potent alpha2-adrenoceptor antagonists” (Orion Corporation, priority 2002, dated 2009).

The target in assay [1] is T1, alpha2B-adrenoceptor (Homo sapiens, UniProt P18089).
T1 sequence (P18089 1-450): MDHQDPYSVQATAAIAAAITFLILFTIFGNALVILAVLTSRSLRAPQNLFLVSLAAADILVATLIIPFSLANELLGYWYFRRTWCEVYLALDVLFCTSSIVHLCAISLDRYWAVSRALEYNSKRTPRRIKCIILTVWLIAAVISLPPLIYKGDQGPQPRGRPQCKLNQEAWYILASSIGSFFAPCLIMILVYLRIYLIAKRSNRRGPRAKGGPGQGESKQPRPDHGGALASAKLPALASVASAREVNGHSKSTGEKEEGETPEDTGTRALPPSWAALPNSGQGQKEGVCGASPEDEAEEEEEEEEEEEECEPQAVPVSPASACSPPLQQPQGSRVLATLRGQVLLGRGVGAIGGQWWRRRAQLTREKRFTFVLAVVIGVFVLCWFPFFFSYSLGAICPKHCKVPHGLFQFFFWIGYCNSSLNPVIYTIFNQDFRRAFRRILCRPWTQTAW
Briefly: Inhibition of epinephrine-stimulated 35S-GTPγS binding, CHO cell membranes (alpha2B). Also noted: expressed in transfected cells; host or cells: CHO cells (membranes). The following applies: mean, read-out: Antagonist potency (KB) alpha2B. It counts as biochemical. The protocol: (§1) The functional activities of two compounds (K and L) displaying alpha2C-selectivity in binding experiments were determined as the abilities of the compounds to inhibit the epinephrine-stimulated binding of ^35S-GTPγS to G proteins (Jasper, J. R. et al., Biochem. Pharmacol. 55(7) (1998) 103544) in membranes of CHO cells stably transfected with the human alpha2-adrenoceptor subtypes.

For another assay, the system named is mice. Kind of assay: Antagonism of alpha2-agonist (dexmedetomidine)-induced sedation. The assay is classed as in vivo. To be noted: dexmedetomidine 50 nmol/kg s.c., antagonist pre-treatment. As to the method: (veh=vehicle). (***p<0.001, compared to Dex+vehicle)
One of the prominent effects of non-selective alpha2-agonists in rodents is their ability to cause profound sedation. This effect, measured as locomotor inhibition by the alpha2-agonist dexmedetomidine was not modified in mice with genetically altered alpha2C-expression (Scheinin, M. et al., Life Sci 68(19-20) (2001) 2277-85). […] This assumption was tested in experiment, where dexmedetomidine was administered to mice pre-treated with the alpha2C-antagonists compound K or compound L, or the subtype non-selective antagonist atipamezole (Haapalinna, A. et al., Naunyn-Schmiedeberg's Arch. Pharmacol. 356 (1997) 570-582).

For the next assay, the system named is rats. Kind of assay: Forced swimming test. The assay is classed as in vivo. The following applies: 3 micromol/kg, compared to vehicle. As to the method:
Forced swimming test (FST, i.e. Porsolt's test) is generally used in the pharmacological screening of new-antidepressants. In this test, antidepressants increase the animals' activity compared to non-treated controls. […] Therefore, it was tested, whether a selective alfa2C-antagonist would have antidepressant-like activity (e.g. activity-increasing property) in the FST. […] Also the positive control substances desipramine and fluoxetine (clinically effective antidepressant agents) were active.

Assay [2] addresses T2, alpha2C-adrenoceptor (Homo sapiens, UniProt P18825).
T2 sequence (P18825 1-462): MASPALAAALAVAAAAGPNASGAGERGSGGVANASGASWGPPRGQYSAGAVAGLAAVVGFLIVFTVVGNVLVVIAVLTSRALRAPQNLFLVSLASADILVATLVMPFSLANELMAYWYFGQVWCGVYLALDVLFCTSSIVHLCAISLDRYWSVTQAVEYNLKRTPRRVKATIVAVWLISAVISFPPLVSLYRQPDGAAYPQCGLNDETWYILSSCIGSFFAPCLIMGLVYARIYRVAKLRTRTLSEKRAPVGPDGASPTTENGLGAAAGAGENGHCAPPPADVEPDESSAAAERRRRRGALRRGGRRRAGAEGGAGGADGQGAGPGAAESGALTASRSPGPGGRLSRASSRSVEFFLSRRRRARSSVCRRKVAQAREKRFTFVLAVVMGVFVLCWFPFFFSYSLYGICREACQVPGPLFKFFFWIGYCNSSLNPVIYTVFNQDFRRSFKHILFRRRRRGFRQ
Kind of assay: Inhibition of epinephrine-stimulated 35S-GTPγS binding, CHO cell membranes (alpha2C). The assay is classed as biochemical. Also noted: expressed in transfected cells; host or cells: CHO cells (membranes). To be noted: mean, read-out: Antagonist potency (KB) alpha2C. The protocol:
as §1
Background: GTPγS is a poorly hydrolysed GTP analogue; its binding reports G protein activation.

For assay [3], the target named is T1, alpha2B-adrenoceptor. Kind of assay: Radioligand binding to alpha2-adrenoceptors (alpha2B). To be noted: calculated Ki from radioligand binding assays; read-out: Binding affinity (Ki) alpha2B. From the text:
Examples of the alpha2-adrenoceptor binding affinities of the compounds including in the present invention are shown in the Table 1. Many of these compouinds are high-affinity ligands for all the alpha2-receptors, but some of them display selectivity for the alpha2C-subtype.

Assay [4] has as its target T2, alpha2C-adrenoceptor. Briefly: Radioligand binding to alpha2-adrenoceptors (alpha2C). The following applies: calculated Ki from radioligand binding assays; read-out: Binding affinity (Ki) alpha2C.
Assay [5] addresses T3, alpha2A-adrenoceptor (Homo sapiens, UniProt P08913).
T3 sequence (P08913 1-465): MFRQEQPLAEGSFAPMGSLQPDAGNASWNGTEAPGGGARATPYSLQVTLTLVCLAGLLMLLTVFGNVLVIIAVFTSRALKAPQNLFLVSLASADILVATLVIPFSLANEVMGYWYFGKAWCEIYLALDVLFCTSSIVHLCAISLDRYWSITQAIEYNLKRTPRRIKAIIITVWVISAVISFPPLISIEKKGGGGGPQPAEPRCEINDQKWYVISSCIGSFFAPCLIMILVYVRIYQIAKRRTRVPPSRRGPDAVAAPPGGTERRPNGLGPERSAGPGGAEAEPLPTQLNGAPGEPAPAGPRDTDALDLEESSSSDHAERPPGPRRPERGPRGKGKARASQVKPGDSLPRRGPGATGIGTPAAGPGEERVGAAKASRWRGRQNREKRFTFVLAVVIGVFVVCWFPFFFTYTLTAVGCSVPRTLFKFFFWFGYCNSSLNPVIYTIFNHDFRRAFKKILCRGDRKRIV
Briefly: Radioligand binding to alpha2-adrenoceptors (alpha2A). The following applies: calculated Ki from radioligand binding assays; read-out: Binding affinity (Ki) alpha2A.

Assay [6] concerns the target T3, alpha2A-adrenoceptor. Briefly: Inhibition of epinephrine-stimulated 35S-GTPγS binding, CHO cell membranes (alpha2A). It counts as biochemical. Also noted: expressed in transfected cells; host or cells: CHO cells (membranes). To be noted: mean, read-out: Antagonist potency (KB) alpha2A. As to the method:
as §1

What is called Kb is the affinity of an antagonist, worked out from how it opposes an agonist. The Ki is the equilibrium dissociation constant of an inhibitor or competing ligand from its target. In the case of `CC[C@]1(CO)CCCN2CCc3c([nH]c4ccccc34)[C@@H]21` (relative stereo) [Compound L], the Kb stood at 75 nM at alpha2B-adrenoceptor [1], 4.2 nM at alpha2C-adrenoceptor [2] and 320 nM at alpha2A-adrenoceptor [6]. Further, the “Antagonism of dexmedetomidine-induced sedation (locomotor inhibition)” value in the assay on mice is “did not have clear effects”. Besides, the “Activity in the forced swimming test” value in the assay with rats is “increased activity”. The values for the Ki on alpha2B-adrenoceptor [3], at alpha2C-adrenoceptor [4] and at alpha2A-adrenoceptor [5] were 20 nM, 18 nM and 85 nM, respectively.

`CCC1(O)CCCN2CCc3c([nH]c4ccccc34)C21` (stereo not drawn) [Compound K, 1α-Ethyl-1,2,3,4,6,7,12,12bβ-octahydroindolo[2,3-]quinolizin-1-ol]: the antagonist equilibrium constant (Kb) was determined as 351 nM on alpha2B-adrenoceptor [1], 23 nM at alpha2C-adrenoceptor [2] and 295 nM on alpha2A-adrenoceptor [6]. Also, the “Antagonism of dexmedetomidine-induced sedation (locomotor inhibition)” value in the assay with mice is “did not have clear effects”. Further, the “Activity in the forced swimming test” value with rats was “increased activity”. In addition, the inhibitory constant (Ki) at alpha2B-adrenoceptor [3] is 245 nM; at alpha2C-adrenoceptor [4] it was 31 nM; on alpha2A-adrenoceptor [5], 359 nM.
